Test results as given in US9051351B2, “Hepatocyte growth factor mimics as therapeutic agents” (Washington State University, priority 2011, dated 2015).
Entries after “also recorded” stand apart in the source; their conditions may differ. Where a SMILES comes first, the peptide text is derived from it. [ ]: non-standard residue; d: D form. The star is where a group is joined. Hexanoyl = CCCCCC(=O)*; Ahx = NCCCCCC(=O)O

Assays:
[1] = tested on: aged rats; experiment: Morris water maze, aged rat model; type: in vivo; conditions: aged rats of mixed sex, Dihexa oral 2 mg/kg/day, 8 days
Description: Swim speed was determined from these values.
The aged rat study employed 24 month old rats of mixed sex. […] The guide was then sealed with a thick stainless steel wire.

[2] = tested on: hippocampal neurons; experiment: Spine head width in mRFP-β-actin transfected hippocampal neurons; type: cell-based, rat; conditions: 10^−12 M, 5 days
From the text: Neurons were transfected with mRFP-β-actin on day in vitro 6 […] using LipofectAMINE™ 2000 (Invitrogen) according to the manufacturer's protocol. This protocol yielded the desired 3-5% transfection efficiency thus enabling the visualization of individual neurons. Higher efficiencies obscured the dendritic arbor of individual neurons. Expression of fluorescently tagged actin allowed clear visualization of dendritic spines, as dendritic spines are enriched in actin. On DIV7 the cells were treated with vehicle (H2O) or peptides (as described in the text) added to media. […] Slides were dried for at least 20 hours at 4° C. and fluorescent images were obtained with Slidebook 4.2 Digital Microscopy Software driving an Olympus IX81 inverted confocal microscope with a 60× oil immersion lens, NA 1.4 and resolution 0.280 μm Dendritic spine density was measured on primary and secondary dendrites at a distance of at least 150 μm from the soma. Five 50 μm long segments of dendrite from at least 10 neurons per data point were analyzed for each data point reported. […] Dendrite length was determined using the National Institutes of Health's Image J 1.41o program (NIH, Bethesda, Md.) and the neurite tracing program Neuron J (Meijering, Jacob et al. 2004) Spines were manually counted. […]

## CCCCCC(=O)N[C@@H](Cc1ccc(O)cc1)C(=O)N[C@H](C(=O)NCCCCCC(N)=O)[C@@H](C)CC [Dihexa, N-hexanoic-Tyr-Ile-(6)-aminohexanoic amide] (Hexanoyl-Tyr-Ile-[Ahx]-NH2)
[1]
  latency to find the pedestal in the water maze: preformed significantly better in the water maze than untreated rats; also recorded: performed significantly better than untreated controls
[1]; listed as dihexa
  latency to find the pedestal in the water maze: significantly improved performance; also recorded: significantly different than that of the non-treated rats
[2]
  spine head width: 0.80 μm
